# Results: patent US20250235498A1, “METHODS OF TREATING OR PREVENTING RESPIRATORY DISEASE WITH HOUTTUYNIA CORDATA THUNB-BASED AEROSOL INHALATION THERAPY” (National Sun Yat-sen University, priority 2024, published 2025)
# Tested on: cytokine and chemokine in bronchoalveolar lavage fluid (BALF)
# Assay: Ovalbumin (OVA)-sensitized phenol-induced COPD animal model, cytokine and chemokine detection in BALF
# Format: in vivo, Female BALB/c ByJNarl mice
# Settings: OVA-sensitized mice exposed to phenol aqueous aerosols for 3 weeks, aerosol inhalation; FIG. 3
# Description: Four types of aerosol drugs with varying formulation are separately named as drug A, drug B, drug C and NAC. Drug A, drug B and drug C are mainly composed by Houttuynia Cordata Thunb aqueous extract. Drug A (HCA-A) is pure Houttuynia Cordata Thunb aqueous extract. Drug B (HCA-B) is comprised of Houttuynia Cordata Thunb aqueous extract and 500 μM GSH, while Drug C (HCA-C) is comprised of Houttuynia Cordata Thunb aqueous extract, 500 µM GSH and 500 μM BP. NAC is a mucolytic and antioxidant drug already prevalently used in clinic that are known to modulate several pathways of inflammation. NAC is used here as the positive control to compare the efficacy of aerosol formulation of Houttuynia Cordata Thunb in this study.
# The OVA-sensitized mice were firstly placed in a custom-built 40 cm×40 cm×30 cm whole-body acrylic exposure chamber, which was filled and continuously replenished with phenol aqueous aerosols (PAA) for 30 minutes, twice per day for three consecutive weeks. PAA were prepared by atomizing 0.25M aqueous phenol solution via a high flow, liquid-feed atomizer (Model 9306, TSI).
# Female BALB/c ByJNarl mice (age: 6-8 weeks, weight: 20-25 g) were purchased from National Laboratory Animal Center (NLAC, NARLabs, Taiwan) and approved by the Institutional Animal Care and Use Committee (IACUC) for the experiment of phenol aerosol exposure and inhalation therapy on OVA-treated mice. […]
smiles,measurement,value
"CC(=O)N[C@@H](CS)C(=O)O [NAC, N-Acetylcysteine]",Interleukin 1α (IL-1α) level in BALF,did not show apparent reduction
